Experimental data taken from patent US4851519A, “Pyrimidine derivatives” (Hoffmann-La Roche Inc., priority 1986, dated 1989).
Where two headings read alike, the source gives them in different places.

Biological target: herpes simplex virus type 2 (HSV-2) thymidine kinase (Human herpesvirus 2, UniProt P04407)
Assay: inhibition of herpes simplex virus type 2 (HSV-2) thymidine kinase in vitro
Format: biochemical
Description: In this test, the assay mixture contains […] Tris-HCl, pH 8, 5 mM magnesium chloride, 5 mM ATP, 0.3 μM ^3 H-thymidine (50 Ci/mmol), suitably diluted thymidine kinase extract and various concentrations of a compound of formula I or a tautomer thereof in a total volume of 100 μl. Assays are incubated at 37° C. for 30 minutes and the reaction is terminated by immersion in a boiling water bath for 2 minutes. 85 μl aliquots from each assay are then dried on to DEAE-cellulose paper discs and the unphosphorylated ^3 H-thymidine is removed by washing in 4 mM ammonium formate. The radioactivity remaining bound to the discs is then measured by scintillation spectrophotometry. The degree of inhibition at each concentration of compound of formula I or tautomer thereof is expressed as a percentage of the control reaction (100%) after substracting a measured blank value which represents the amount of radioactivity bound to the disc from a reaction containing heat inactivated enzymes. the IC50 value, namely, the concentration of compound of formula I or tautomer thereof which inhibits enzyme activity by 50%, is then calculated. The results obtained with representative compounds of formula I are complied in the following Table: […]

[1] = HSV-2 thymidine kinase extract, 0.3 μM 3H-thymidine, 5 mM ATP, pH 8, 37° C., 30 minutes, read-out: IC50 (concentration which inhibits enzyme activity by 50%)

Chain of herpes simplex virus type 2 (HSV-2) thymidine kinase (P04407 whole entry): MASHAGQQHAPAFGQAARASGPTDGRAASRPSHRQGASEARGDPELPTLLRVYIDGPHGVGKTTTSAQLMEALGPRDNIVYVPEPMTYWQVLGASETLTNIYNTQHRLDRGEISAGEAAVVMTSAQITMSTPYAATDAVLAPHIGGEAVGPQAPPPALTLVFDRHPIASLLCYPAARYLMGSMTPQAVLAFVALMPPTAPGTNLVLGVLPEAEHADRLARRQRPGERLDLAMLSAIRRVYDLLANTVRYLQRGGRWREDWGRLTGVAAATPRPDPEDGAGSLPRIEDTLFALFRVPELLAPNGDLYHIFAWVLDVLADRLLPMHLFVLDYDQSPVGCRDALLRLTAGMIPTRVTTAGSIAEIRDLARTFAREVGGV

| IC50 [1] [nM] | Structure (SMILES) | IC50 [nM] |
| --- | --- | --- |
| 70 | CCc1cn([C@H]2C[C@H](O)[C@@H](CNC(=O)Cc3ccc(-c4ccccc4)cc3)O2)c(=O)[nH]c1=O [Compound D, 5'-[2-(4-biphenylyl)acetamido]-2',5'-dideoxy-5-ethyluridine] |  |
| 2.7 | CCc1cn([C@H]2C[C@H](O)[C@@H](CNC(=O)C(C)Oc3ccc(Cl)cc3[N+](=O)[O-])O2)c(=O)[nH]c1=O (mixture of isomers) [Compound H, 5'-[2(RS)-(4-chloro-2-nitrophenoxy)propionamido]-2',5'-dideoxy-5-ethyluridine] |  |
| 3.5 | CCCc1cn([C@H]2C[C@H](O)[C@@H](CNC(=O)C(C)Oc3ccc(Cl)cc3Cl)O2)c(=O)[nH]c1=O (mixture of isomers) [Compound K, 5'-[2(RS)-(2,4-dichlorophenoxy)propionamido]-2',5'-dideoxy-5-propyluridine] |  |
| 4.7 | CCc1cn([C@H]2C[C@H](O)[C@@H](CNC(=O)C(Oc3ccc(Cl)cc3Cl)c3ccccc3)O2)c(=O)[nH]c1=O (mixture of isomers) [Compound I, 5'-[2(RS)-(2,4-dichlorophenoxy)-2-phenylacetamido]-2',5'-dideoxy-5-ethyluridine] |  |
| 1.2 | CCc1cn([C@H]2C[C@H](O)[C@@H](CNC(=O)C(C)Oc3cc(OC)c(Cl)cc3Cl)O2)c(=O)[nH]c1=O (mixture of isomers) [Compound J, 5'-[2(RS)-(2,4-dichloro-5-methoxyphenoxy)propionamido]-2',5'-dideoxy-5-ethyluridine] |  |
|  | CCc1cn([C@H]2C[C@H](O)[C@@H](CNC(=O)Cc3c(Cl)cccc3Cl)O2)c(=O)[nH]c1=O [Compound B, 5'-[2-(2,6-dichlorophenyl)acetamido]-2',5'-dideoxy-5-ethyluridine] | 3 |
| 1.3 | CCc1cn([C@H]2C[C@H](O)[C@@H](CNC(=O)C(C)Oc3cc(Cl)c(Cl)cc3Cl)O2)c(=O)[nH]c1=O (mixture of isomers) [Compound G, 5'-[2(RS)-(2,4,5-trichlorophenoxy)propionamido]-2',5'-dideoxy-5-ethyluridine] |  |
| 3.7 | CCc1cn([C@H]2C[C@H](O)[C@@H](CNC(=O)C(C)Oc3ccc(Cl)cc3Cl)O2)c(=O)[nH]c1=O (mixture of isomers) [Compound C, 5'-[2(RS)-(2,4-dichlorophenoxy)propionamido]-2',5'-dideoxy-5-ethyluridine] |  |
| 5 | CCc1cn([C@H]2C[C@H](O)[C@@H](CNC(=O)C(C)Oc3ccccc3-c3ccccc3)O2)c(=O)[nH]c1=O (mixture of isomers) [Compound E, 2',5'-dideoxy-5-ethyl-5'-[2(RS)-(2-phenylphenoxy)propionamido]uridine] |  |
| 4 | CCc1cn([C@@H]2O[C@H](CNC(=O)C(C)Oc3ccc(Cl)cc3Cl)[C@@H](O)[C@@H]2F)c(=O)[nH]c1=O (mixture of isomers) [Compound F, 1-[5-[2-(RS)-(2,4-dichlorophenoxy)propionamido]-2,5-dideoxy-2-fluoro-β-D-arabinofuranosyl]-5-ethyluracil] |  |
| 20 | CCc1cn([C@H]2C[C@H](O)[C@@H](CNC(=O)Cc3ccccc3Br)O2)c(=O)[nH]c1=O [Compound A, 5'-[2-(2-bromophenyl)acetamido]-2',5'-dideoxy-5-ethyluridine] |  |
